Holding throughout (experiment): inhibition of tumour cell growth, NCI panel, 48 h
Experiment [1] relates to SN12C.
The subject of experiment [2] is SK-OV-3.
For experiment [3], the system named is HL-60.
For experiment [4], the system named is A498.
In experiment [5] the test system is K562.
For experiment [6], the system named is HCT-15.
The test system of experiment [7] is LXFL 529.
Experiment [8] relates to A549.
Experiment [9] has as its system NCI-H226.
The subject of experiment [10] is SK-MEL-2.
Experiment [11] concerns TK-10.
For experiment [12], the system named is U-251.
Experiment [13] deals with SF-539.
The subject of experiment [14] is Malme-3M.
In experiment [15] the test system is IGROV-1.
Experiment [16] relates to UO-31.

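Cultured in 96-well plates, cells were exposed to test compound for 48 hours across five concentrations. Abbreviation: GI50, concentration required for 50% inhibition of growth.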 The source made the active and inactive calls. No stated cut-off is given here; in the data, active = GI50 up to about 1.1 µM and inactive = higher.

For the compound `Oc1cc2cc(-c3ccccc3)[nH]c2c2ccccc12`, the GI50 is 28.8 µM (inactive) in [1]; > 77.8 µM (inactive) in [2]; 8.15 µM (inactive) in experiment [3]; > 100 µM (inactive) in [4]; 26.7 µM (inactive) in [5]; 27.1 µM in experiment [6]. The GI50 in experiment [7] was 24.5 µM (inactive); in [8], 30.1 µM (inactive); in [9], > 100 µM (inactive); in [10], 20.3 µM (inactive); in [11], > 100 µM (inactive); in experiment [12], 32.1 µM (inactive). Besides, the GI50 was 28.6 µM (inactive) in experiment [13], 19.9 µM (inactive) in experiment [14], 35.6 µM (inactive) in experiment [15] and 19.2 µM (inactive) in experiment [16].

In the case of `COc1cc(/C=N\c2ccc(C(C)C)cc2)cc(OC)c1OC`, the GI50 is > 100 µM (inactive) in [1]; > 100 µM (inactive) in experiment [2]; > 40.9 µM (inactive) in [3]; > 100 µM (inactive) in experiment [4]; > 50.4 µM (inactive) in [5]; greater than 55.5 µM in experiment [6]. Moreover, the GI50 in experiment [7] was 99.5 µM (inactive); in [8], > 100 µM (inactive); in [9] it was > 100 µM (inactive); in [10], > 100 µM (inactive); in experiment [11], > 100 µM (inactive); in [12], > 100 µM (inactive). Moreover, the GI50 in [13] is > 100 µM (inactive); in experiment [14] it was > 100 µM (inactive); in [15], > 100 µM (inactive); in experiment [16], > 74.1 µM (inactive).

For the compound `c1ccc2c(c1)CCc1c(-c3n[nH]c4c3CCc3ccccc3-4)n[nH]c1-2`, the GI50 in [1] is > 100 µM (inactive); in experiment [2] it was > 100 µM (inactive); in [3] it was > 100 µM (inactive); in [4], > 100 µM (inactive); in experiment [5], 27.9 µM (inactive); in experiment [6] it was greater than 100 µM. The GI50 in experiment [7], in experiment [8], in experiment [9], in experiment [10], in [11] and in experiment [12] was > 100 µM (inactive) in each case. Also, the GI50 in experiment [13], in experiment [14], in experiment [15] and in experiment [16] was > 100 µM (inactive) throughout.

With `Nc1ccc(C(=O)NN2C(=O)C(Cl)C2c2ccc([N+](=O)[O-])cc2)cc1` (stereo not given), the GI50 in experiment [1] is 14.8 µM (inactive); in experiment [2], 14.1 µM (inactive); in experiment [3], 1.92 µM (inactive); in experiment [4], 20.8 µM (inactive); in experiment [5], 9.75 µM (inactive); in experiment [6], 8.05 µM. Besides, the GI50 in experiment [7] was 4.86 µM (inactive); in experiment [8], 11.9 µM (inactive); in experiment [9], 17.2 µM (inactive); in experiment [10] it was 16.9 µM (inactive); in experiment [11], 19.2 µM (inactive); in experiment [12], 2.13 µM (inactive). Further, the GI50 in [13] was 11.6 µM (inactive); in [14], 12.1 µM (inactive); in experiment [15], 5.31 µM (inactive); in experiment [16], 15.6 µM (inactive).

As to `[O-][S+]1Nc2c(Cl)cc(Cl)c3c(Cl)cc(Cl)c(c23)N1`, the GI50 in experiment [1] was 34.6 µM (inactive); in experiment [2], 45.7 µM (inactive); in experiment [3] it was 34.2 µM (inactive); in [4] it was 21.9 µM (inactive); in [5], 41.5 µM (inactive); in experiment [6], 32.1 µM. The GI50 was 40.3 µM (inactive) in experiment [7]; 29.6 µM (inactive) in [8]; 25.1 µM (inactive) in experiment [9]; 47 µM (inactive) in experiment [10]; 42.6 µM (inactive) in experiment [11]; 28.2 µM (inactive) in experiment [12]. The GI50 in experiment [13] was 36.7 µM (inactive); in experiment [14], 43.8 µM (inactive); in experiment [15], 58.5 µM (inactive); in experiment [16], 51.8 µM (inactive).

(Values after ChEMBL document CHEMBL1201862, “PubChem BioAssay data set” (2004).)
